Source: US12448383B2, “Compounds and methods for treatment of viral infections” (priority 2022, dated 2025)

Key:
[1] = system: SARS Coronavirus 2 recombinant with NanoLuc (SARS-CoV2-NLuc) in A549-hACE2 cells; assay: organism not typed; type: cell-based; conditions: 48 h; read-out: SARS-CoV2 EC50
[2] = CC50 MT4 cytotoxicity (Cell-Titer Glo); type: cell-based; conditions: human
Method: Cytotoxicity of the compounds was determined in uninfected cells using the cell viability reagent in a similar fashion as described before for other cell types (Cihlar et al., Antimicrob Agents Chemother. 2008, 52(2):655-65). HEp-2 (1.5×10^3 cells/well) and MT-4 (2×10^3 cells/well) cells were plated in 384-well plates and incubated with the appropriate medium containing 3-fold serially diluted compound ranging from 15 nM to 100,000 nM. Cells were cultured for 4-5 days at 37° C. Following the incubation, the cells were allowed to equilibrate to 25° C., and cell viability was determined by adding Cell-Titer Glo viability reagent. The mixture was incubated for 10 min, and the luminescence signal was quantified using an Envision plate reader. Untreated cell and cells treated at 2 μM puromycin (Sigma, St. Louis, MO) serve as 100% and 0% cell viability control, respectively. The percent of cell viability was calculated for each tested compound concentration relative to the 0% and 100% controls and the CCso value was determined by non-linear regression as a compound concentration reducing the cell viability by 50%.

[3] = system: Respiratory syncytial virus recombinant with luciferase (RSV-Luc5) in HEp-2 cells; assay: microbe, parasite or virus in culture; type: cell-based; conditions: human respiratory syncytial virus, HEp-2, 72 h, read-out: RSV Hep2 EC50
[4] = system: Respiratory syncytial virus recombinant with luciferase (RSV-Luc5) in Normal Human Bronchial Epithelial (NHBE) cells; assay: microbe, parasite or virus in culture; type: cell-based; conditions: 72 h, read-out: RSV NHBE EC50
Plasma stability = type: in vitro ADME; parameters: unit not given here; conditions: 37° C., 2 μM substrate
Method: At 0.05, 0.5, 1, 2, 3 and 4 hr, […] aliquots of the reaction mixture were transferred to plates containing […] of IS/Q quenching solution. After quenching, the plates were centrifuged at 3000 g for 30 minutes, and 150 μL supernatant was diluted with 150 μL water. Aliquots ([…]) of the diluted supernatant were analyzed on a Thermo Q-Exactive mass spectrometer as described below.
Mobile phase A consisted of 0.1% (v/v) formic acid in water. Mobile phase B consisted of 0.1% (v/v) formic acid in acetonitrile. Elution of analytes was achieved by a series of linear gradients of acetonitrile in water containing 0.1°(v/v) formic acid. The mass spectrometer was calibrated on a weekly basis and mass tolerance of 5 ppm was used.

[5] = system: Caco-2 cells (clone C2BBe1); assay: CACO-2 permeability; type: in vitro ADME; parameters: unit not given here; conditions: for DM Caco2 A to B: apical to basolateral, donor pH 6.5, receiver pH 7.4; for DM Caco2 B to A: basolateral to apical
Method: Pre-plated Caco-2 cells (clone C2BBel) were obtained from Sigma-Aldrich, Inc. (Atlanta, GA). Cell monolayers were grown to confluence on collagen-coated, microporous, polycarbonate membranes in 24-well transwell plates for 21 days. The permeability assay buffer in donor wells was Hanks' balanced salt solution (HBSS) containing 10 mM HEPES and 15 mM glucose at a pH of 6.5 containing 200 μM BNPP. The receiver wells used HBSS buffer containing 10 mM HEPES and 15 mM glucose at a pH of 7.4 and supplemented with 1°% BSA. After an initial equilibration with transport buffer, TEER values were read to test membrane integrity. The experiment was started by the addition of buffers containing test compounds, 200 μl and 1000 μl in the apical and basolateral chamber, respectively. At 0- and 2-hour post dose, 10 μL was sampled from donor compartment and was immediately diluted in 190 μL of 20% methanol. At 1 and 2 hours post dose, 100 μl of solution was taken from the receiver compartments and was immediately diluted in 100 μl of 20% methanol. Removed buffer was replaced with fresh buffer and a correction was applied to all calculations for the removed material. Each compound was tested in 2 separate replicate wells for each condition. All samples were then extracted with 400 μl 100% acetonitrile with internal standard to precipitate protein. Cells were dosed on the apical or basolateral side to determine forward (A to B) and reverse (B to A) permeability. To test for non-specific binding and compound instability, the total amount of drug was quantitated at the end of the experiment and compared to the material present in the original dosing solution as a percent recovery. […] Samples were analyzed by LC-MS/MS.

[6] = GI S9 stability - no PMSF; type: in vitro ADME; conditions: pH 7.4; human intestinal S9, PMSF-free; read-out: GIS9-HUMAN-NoPMSF T1/2
Method: Duplicate aliquots of test compound or positive control substrate (GS-7340) were added to S9 stock diluted with 100 mM phosphate buffered saline, pH 7.4, to obtain a protein concentration of 1.0 mg/mL. The S9 metabolic reactions were initiated by the addition of the substrates to the S9 reaction mixture to a final concentration of 2 μM. At 0, 10, 20, 30, 60 and 120 min, […] aliquots of the reaction mixture were transferred to plates containing […] of IS/Q solution. After quenching, the plates were centrifuged at 3000 g for 30 minutes, and 150 μL aliquots of each supernatant were diluted with 150 μL water. Aliquots ([…]) of the diluted supernatant were analyzed on a Thermo Q-Exactive mass spectrometer as described below. GI S9 Stability—No phenylmethylsulfonyl fluoride (PMSF): Similar to the procedure described above, test compounds were incubated at 2 μM with 1 mg/mL PMSF-free Intestinal S9 fractions. Samples are removed at 6 time points over the course of a 120 min experiment and the parent compound disappreance and reference compound A formation is determined by mass spectrometry.
Example K: Liquid Chromatography/Mass Spectroscopy Methods for S9 and Plasma Stability
Quantification of test compounds, Reference Compound A (S9 stability assay nucleoside metabolite), and controls was performed by analyte/internal standard peak area ratio (PAR) values measured on a Thermo Q-Exactive mass spectrometer coupled to a Dionex UltiMate 3000 HPLC with a Leap Technologies HTC PAL autosampler. The column used for analysis of test compounds and Reference Compound A was a Waters Acquity BEH C18 ([…] particle size, 2.1′50 mm). The column used for control (GS-7340) was a Thermo Hypersil GOLD ([…] particle size, 2.1′50 mm). Mobile phase A consisted of 0.1% (v/v) formic acid in water. Mobile phase B consisted of 0.1% (v/v) formic acid in acetonitrile. Elution of analytes was achieved by a series of linear gradients of acetonitrile in water containing 0.1°(v/v) formic acid. The mass spectrometer was calibrated on a weekly basis and mass tolerance of 5 ppm was used.

Row | SMILES | EC50 [1] | CC50 [2] | EC50 [3] | EC50 [4] | STA Human Plasma 37 (Plasma stability) | DM Caco2 A to B [5] | DM Caco2 B to A [5] | half-life at 2 µM [6]
1 | CC(C)COC(=O)OC[C@H]1O[C@@](C#N)(c2ccc3c(N)ncnn23)[C@@H]2OC(=O)O[C@@H]21 [Compound 17, ((3aR,4R,6R,6aR)-6-(4-aminopyrrolo[2,1-f][1,2,4]triazin-7-yl)-6-cyano-2-oxotetrahydrofuro[3,4-d][1,3]dioxol-4-yl)methyl isobutyl carbonate] | 814 nM | > 50000 nM | 412 nM | 1900 nM |  |  |  | 
2 | CC(C)(C)COC(=O)OC[C@H]1O[C@@](C#N)(c2ccc3c(=N)n(COP(=O)(O)OCc4ccccc4)cnn23)[C@H](O)[C@@H]1O [Compound 18, ((2R,3S,4R,5R)-5-(3-((((benzyloxy)(hydroxy)phosphoryl)oxy)methyl)-4-imino-3,4-dihydropyrrolo[2,1-f][1,2,4]triazin-7-yl)-5-cyano-3,4-dihydroxytetrahydrofuran-2-yl)methyl neopentyl carbonate] | 12400 nM | > 50000 nM | 2870 nM | 12100 nM |  |  |  | 
3 | N#C[C@@]1(c2ccc3c(N)ncnn23)O[C@H](COC(=O)OC2CNC2)[C@@H](O)[C@H]1O [Compound 20, ((2R,3S,4R,5R)-5-(4-aminopyrrolo[2,1-f][1,2,4]triazin-7-yl)-5-cyano-3,4-dihydroxytetrahydrofuran-2-yl)methyl azetidin-3-yl carbonate] | 8980 nM | > 50000 nM | 2020 nM | 4350 nM |  |  |  | 
4 | Cc1oc(=O)oc1COC(=O)OC[C@H]1O[C@@](C#N)(c2ccc3c(N)ncnn23)[C@H](O)[C@@H]1O [Compound 26, ((2R,3S,4R,5R)-5-(4-aminopyrrolo[2,1-f][1,2,4]triazin-7-yl)-5-cyano-3,4-dihydroxytetrahydrofuran-2-yl)methyl ((5-methyl-2-oxo-1,3-dioxol-4-yl)methyl) carbonate] | 2390 nM | > 50000 nM | 942 nM | 844 nM | 33.7 | 0.07 | 0.36 | 29.2 s
5 | CCCCCOC(=O)OC[C@H]1O[C@@](C#N)(c2ccc3c(N)ncnn23)[C@H](O)[C@@H]1O [Compound 27, ((2R,3S,4R,5R)-5-(4-aminopyrrolo[2,1-f][1,2,4]triazin-7-yl)-5-cyano-3,4-dihydroxytetrahydrofuran-2-yl)methyl pentyl carbonate] | 658 nM | > 50000 nM | 145 nM | 1010 nM |  |  |  | 
6 | N#C[C@@]1(c2ccc3c(N)ncnn23)O[C@H](COC(=O)OC2CC3(CCC3)C2)[C@@H](O)[C@H]1O [Compound 29, ((2R,3S,4R,5R)-5-(4-aminopyrrolo[2,1-f][1,2,4]triazin-7-yl)-5-cyano-3,4-dihydroxytetrahydrofuran-2-yl)methyl spiro[3.3]heptan-2-yl carbonate] | 835 nM | > 50000 nM | 109 nM | 1300 nM | 139 | 1.91 | 12.29 | 37 s
7 | N#C[C@@]1(c2ccc3c(N)ncnn23)O[C@H](COC(=O)OCC2CCCC2)[C@@H](O)[C@H]1O [Compound 85, ((2R,3S,4R,5R)-5-(4-aminopyrrolo[2,1-f][1,2,4]triazin-7-yl)-5-cyano-3,4-dihydroxytetrahydrofuran-2-yl)methyl (cyclopentylmethyl) carbonate] | 417 nM | > 50000 nM | 166 nM | 776 nM | 38.6 |  |  | 37.3 s
8 | N#C[C@@]1(c2ccc3c(N)ncnn23)O[C@H](COC(=O)OCC2CCCCC2)[C@@H](O)[C@H]1O [Compound 86, ((2R,3S,4R,5R)-5-(4-aminopyrrolo[2,1-f][1,2,4]triazin-7-yl)-5-cyano-3,4-dihydroxytetrahydrofuran-2-yl)methyl (cyclohexylmethyl) carbonate] | 623 nM | > 50000 nM | 371 nM | 1220 nM | 48.6 |  |  | 41 s
9 | CC[C@@H](C)OC(=O)OC[C@H]1O[C@@](C#N)(c2ccc3c(N)ncnn23)[C@H](O)[C@@H]1O [Compound 89, ((2R,3S,4R,5R)-5-(4-aminopyrrolo[2,1-f][1,2,4]triazin-7-yl)-5-cyano-3,4-dihydroxytetrahydrofuran-2-yl)methyl ((R)-sec-butyl) carbonate] | 2690 nM | > 50000 nM | 665 nM | 978 nM | 188.5 |  |  | 35.4 s
10 | CC(C)OC(=O)OC[C@H]1O[C@@](C#N)(c2ccc3c(N)ncnn23)[C@@H]2OC(c3ccccc3)O[C@@H]21 (stereo partly drawn) [Compound 100, [(3aR,4R,6R,6aR)-4-(4-aminopyrrolo[2,1-f][1,2,4]triazin-7-yl)-4-cyano-2-phenyl-6,6a-dihydro-3aH-furo[3,4-d][1,3]dioxol-6-yl]methyl isopropyl carbonate] |  | > 50000 nM | > 50000 nM | 16000 nM |  | 11.73 | 22.71 | 
11 | C=CCCOC(=O)O[C@H]1[C@@H](OC(=O)OCCC=C)[C@](C#N)(c2ccc3c(N)ncnn23)O[C@@H]1COC(=O)OC(C)C [Compound 136, (2R,3R,4R,5R)-2-(4-aminopyrrolo[2,1-f][1,2,4]triazin-7-yl)-2-cyano-5-(((isopropoxycarbonyl)oxy)methyl)tetrahydrofuran-3,4-diyl di(but-3-en-1-yl) bis(carbonate)] | 4700 nM | > 50000 nM |  | 2030 nM | 463.08 | 4.33 | 5.7 | 60.8 s
